Assay results from patent US4748177A, “Guanine derivatives” (Warner-Lambert Company, priority 1985, dated 1988).

Test system: T-cells
Assay: standard test of selective cytotoxicity for T-cells in the presence of 2'-deoxyguanosine
Type: cell-based
Details: in the presence of 10 μM of 2'-deoxyguanosine
Experimental: […] activity was measured radiochemically by measuring the formation of [^14 -C]-hypoxanthine from [^14 -C]-inosine [Biomedicine, 33, 39 (1980)] using human erythrocyte as the enzyme source. The same compounds also were found by a standard test [Science, 214, 1137, (1981)] to be selectively cytotoxic for T-cells in the presence of 2'-deoxyguanosine at a similar concentration range. For example, 8-amino-9-[(4-methylphenyl)methyl]guanine is selectively cytotoxic to T-cells at a concentration of about 3.1 μM in the presence of 10 μM of 2'-deoxyguanosine. Similarly, 8-amino-9-[(4-methoxyphenyl)methyl]guanine is selectively cytotoxic to T-cells at concentration of about 1.1 μM in the presence of 10 μM of 2'-deoxyguanosine. On the other hand, these compounds were nontoxic to B-cells in the presence or absence of the same amount of 2'-deoxyguanosine. Since T-cells play a central role in immune response, use of the compounds of the invention is contemplated for the immunoregulation of rejection in transplantation and autoimmune disease such as rheumatoid arthritis, systemic lupus erythematosus, inflammatory bowel disease, cancer, juvenile diabetes, myasthenia gravis, multiple sclerosis, and viral diseases. […]

| Compound | concentration at which selectively cytotoxic to T-cells |
| --- | --- |
| COc1ccc(Cn2c(N)nc3c(=O)[nH]c(N)nc32)cc1 [8-amino-9-[(4-methoxyphenyl)methyl]guanine] | about 1.1 μM |
| Cc1ccc(Cn2c(N)nc3c(=O)[nH]c(N)nc32)cc1 [8-amino-9-[(4-methylphenyl)methyl]guanine] | about 3.1 μM |
